Measurements reported in US20070049538A1, “METHODS FOR USING CUCURBITACIN COMPOUNDS” (SOUTH DAKOTA STATE UNIVERSITY, priority 2005, published 2007).

Columns and labels:
[1] = standard compounds; gradient elution and correlation with published data; cited from earlier work
[2] = Chromatographic hydrophobicity index (CHI) by RP-HPLC in buffered acetonitrile; type: physicochemical; set-up: key: CHI = φ0 (isocratic hydrophobicity index), = A·tR + B; ACN % scale; details: for CHIACN (b): standard compounds, isochratic and gradient elution of standard mixture; for CHIACN1: buffered acetonitrile pH 7.0, Alltima C18 250 mm, Eq. (2) from isocratic φ0; for CHIACN2: buffered acetonitrile pH 7.0, Eq. (3) calibrated against published CHI
Method: (§1) We used Dynamax liquid chromatograph (Varian Chromatography Systems) with PDA-2 photodiode array UV detector, controlled by the Dynamax PC Chromatography Data System (v. 1.9) software and Dynamax dual pump solvent delivery system, model SD-200. […] Cucurbitacins analytical separation was optimized on Alltima C18 (Alltech; 250 mm×4.6 mm, 5 μm) HPLC column, at gradient elution in acetonitrile (ACN, 30-70% ACN in 57 min), and in MeOH (60-75% MeOH in 50 min). Cucurbitacins stock concentration of 10^−2M in DMSO:ethanol (1:1) was standardized against pure cucurbitacin I (Indofine Chemical Company, Hillsborough, N.J.) by analytical HPLC means. Compounds CHI was measured in both ACN, by using Alltima C18 column, and in MeOH, by using Econosil C18 column (Alltech; 150 mm×4.6 mm, 5 μm). Analytical separations were conducted at a flow rate of 1 ml/min. The aqueous phase was buffered for the CHI measurement. For this purpose, solid ammonium acetate (Fisher Sci. Co., Fair Lawn, N.J.) was dissolved in deionized distilled water at 50 mM final concentration and its pH adjusted to 7.0.
All standard compounds were purchased from Acros (Acros Organics, NJ). The chromatographic lipophilicity or hydrophobicity was determined applying Valkó's technique (Valkó et al., Anal. Chem. 69 (1997) 2022, the entire disclosure of which is herein incorporated by reference). A standard mixture of seven compounds was prepared in solution: theophylline (compound 19), benzimidazole (compound 20), acetophenone (compound 21), indole (compound 22), propiophenone (compound 23), butyrophenone (compound 24), and valerophenone (compound 25). […] The retention factor, log k=log((tR-t0)/t0), was calculated for each analyte from five good injections of […] sample. The dead time (t0) was measured by injecting NaNO3 together with the sample. Then, the log k values were plotted against isocratic ACN concentrations to establish the linear regression equations for each analyte. From each straight line the isocratic hydrophobicity index was computed, φ0=(intercept/slope). Further, the calibration mixture was injected at fast gradient elution, 0-22 min 0-100% ACN, and three additional minutes at 100% ACN. The φ0 values for the test compounds were plotted against gradient retention time and the linear equation determined from the following equation: φ0=CHI=AtR+B (1)
The gradient elution conditions were similar to the one from the first approach.
(§2) Cucurbitacins lipophilicity was measured by RP-HPLC. […] Due to its high viscosity, aqueous MeOH required a shorter column than the one applied for ACN. First, the C18 columns were calibrated against a standard mixture, and the relationships established between the fast gradient tR and φ0 or published CHI (see Eqs. (2)-(4) from Table 2). Second, cucurbitacins were injected at fast gradient elution under similar conditions, and their CHI calculated (Table 4) from Eqs. (2)-(4). Eqs.

[3] = Chromatographic hydrophobicity index (CHI) by RP-HPLC in buffered methanol; type: physicochemical; details: for CHIMeOH (b): standard compounds, isochratic and gradient elution of standard mixture; for CHIMeOH: buffered methanol pH 7.0, Econosil C18 150 mm, Eq. (4)
Method: as §1
A standard mixture of 10 compounds including 19-21, 23-27, aniline (compound 28) and bromobenzene (compound 29), dissolved in MeOH, was injected at five isochratic elution, at 40, 45, 50, 55, and 60% MeOH. Then the mixture was injected at fast gradient elution to establish the correlation from Eq. (1). The fast linear gradient elution was optimized for 30-100% MeOH in aqueous buffer with 10 min runtime.
as §2

[4] = test system: HSC-T6 cells; experiment: Serum-driven HSC-T6 proliferation, experiment 3 (24 h, proliferating cells); type: cell-based, rat; details: HSC-T6, 24 h, read-out: Experiment 3 EC50 (A)
Method: (§3) To overcome this problem, the amount of incubation time was increased to 24 h, and cucurbitacin activity measured on starved (Exp. 2) or proliferative (Exp. 3) cells (Table 8). Cells turned quiescent when serum was not supplemented for one day (Exp. 2). Activity of a few compounds was monitored on quiescent cells, and their activity compared to the ones measured on proliferating cells (Exp. 3).
(§4) We established several experimental conditions such as 4 hours of incubation time with cucurbitacin, and 2 day cell incubation with fresh media after challenging with cucurbitacin (Exp. 1). Other experiments involved addition of cucurbitacin for 24 hours over starved cells (Exp. 2) vs. proliferating cells (Exp. 3), and one day incubation of cells with fresh media after challenge. The 4 hour incubation period with cucurbitacin triggered anti-proliferation effect. This effect, however, was hindered by a second cycle of cell proliferation during the two-day cell growth period (see silybin, E and I glucosides, and for I-nPr). […] Because of that, the challenge time was increased to 24 hours (Exp. 2 and 3).
(§5) In experiment 3, only 40% of the cells divided. The ratio of EC50 values for exp. 2 and exp. 3 varied between 3.6 and 12.7. This may indicate differential cytotoxicity of silybin and cucurbitacin analogs over quiescent and active stellate cells. In other words, compounds show higher anti-proliferative activity on active cells than on quiescent cells.

[5] = test system: HSC-T6 cells; experiment: Serum-driven HSC-T6 proliferation, experiment 2 (24 h, starved/quiescent cells); type: cell-based, rat; details: HSC-T6, 24 h, read-out: Experiment 2 EC50
Method: as §3, §4, §5

[6] = test system: HSC-T6 cells; experiment: Cytotoxicity on HSC-T6 cells (experiment 3); type: cell-based, rat; details: for IC50: read-out: Experiment 3 IC50 (T)
From the text: Cytotoxicity of all cucurbitacin analogs was additionally measured in experiment 3 (Table 8).

[7] = test system: HSC-T6 cells; experiment: Serum-driven HSC-T6 proliferation, experiment 1 (4 h challenge, two days drug-free growth); type: cell-based, rat; details: for EC50: HSC-T6, 4 h challenge, then two days drug-free media
Method: The proliferation effect of serum on HSC-T6 cells was optimized and cucurbitacin antiproliferative activity was measured. Serum contains a large number of growth factors, hormones and other nutrients, which help cells to grow and multiply. Several trials were conducted. In experiment 1, cells were challenged with cucurbitacin analogs for 4 h and then cells were grown in drug-free media for two additional days.
HSC-T6 cells were photographed under phase-contrast microscope to record possible changes in cell morphology during experiment 1. […] We are monitoring specifically the effect of compound on the cells, cell recovery after 4 h challenge, and relative cell proliferation. […] Live cells are quantified at the end of the assay (row 4) with MTT dye.
We established several experimental conditions such as 4 hours of incubation time with cucurbitacin, and 2 day cell incubation with fresh media after challenging with cucurbitacin (Exp. 1). Other experiments involved addition of cucurbitacin for 24 hours over starved cells (Exp. 2) vs. proliferating cells (Exp. 3), and one day incubation of cells with fresh media after challenge. […] Because of that, the challenge time was increased to 24 hours (Exp. 2 and 3).
We modified this approach. Our assay included a second control (ZC) supplemented with no serum intended to measure cucurbitacin anti-proliferation effect relative to the number of cells generated during challenge instead of the total number of cells present in each well.

[8] = test system: HepG2 cells; experiment: cells
From the text: Experimental conditions were standardized on silybin. […]
The ratio of IC50-to-EC50 (hereafter T/A) is also indicated in this table, which gives the margin between toxic and cytoprotective concentrations.

[9] = test system: HepG2 cells; experiment: Cucurbitacins cytotoxicity on HepG2 cells (MTT viability assay); type: cell-based, human
Method: HepG2 (human hepatocellular carcinoma, ATCC) cells were grown in EMEM (Gibco, Grand Island, N.Y.) supplemented with 10% fetal bovine serum (FBS), and 1% penicillin/fungizone mixture (Gibco). Thabrew's optimized procedure (Thabrew et al., J. Pharm. Pharmcol. 49 (1994) 1442, the entire disclosure of which is herein incorporated by reference) was followed. Cells were batch cultured for 10 days, then seeded at concentration of 30,000 cells/well in fresh media in 96-well microtiter plastic plates at 37° C. for a day. Then cells were exposed to different concentrations of cucurbitacins at final volume of 100 μl/well. Five-fold serial dilution of compounds was carried out in the plate for five consecutive wells. After 24 h of incubation with chemicals, live cells were visualized using the MTT viability assay (Promega, Madison, Wis.). The absorbance was measured at 570 nm. Negative (without cells) and positive (without test chemicals) controls were also incubated with each plate. […] At least three reproducible experiments were performed per compound with three replicate wells per concentration.
Cells were challenged with cu-curbitacins at various concentrations for a day and then live cells quantified with MTT dye. This period of time measures exclusively compounds cytotoxicity, while longer incubation time may lead to interference from metabolites.

Compound: c1ccc2[nH]ccc2c1 [Indole (22), indole, reference compound]
- CHIACN (c) [1]: 69.15
- CHIACN (b) [2]: 67.73 + 0.13

Compound: CCCC(=O)c1ccccc1 [Butyrophenone (24), butyrophenone, reference compound]
- CHIACN (c) [1]: 88.49
- CHIMeOH (b) [3]: 66.79 ± 0.05
- CHIACN (b) [2]: 79.32 ± 0.14

Compound: CCC(=O)c1ccccc1 [Propiophenone (23), propiophenone, reference compound]
- CHIACN (c) [1]: 78.41
- CHIMeOH (b) [3]: 60.41 + 0.04
- CHIACN (b) [2]: 71.72 + 0.15

Compound: Cn1c(=O)c2[nH]cnc2n(C)c1=O [Theophylline (19), theophylline, reference compound]
- CHIACN (c) [1]: 15.76
- CHIMeOH (b) [3]: 25.76 ± 0.05
- CHIACN (b) [2]: 32.63 ± 0.07

Compound: CCOC1=CC2C(=CCC3C2(C)C(=O)CC2(C)C(C(C)(O)C(=O)C=CC(C)(C)O)C(O)CC32C)C(C)(C)C1=O (stereo not shown) [I-Et]
- EC50 ([4]; proliferating cells): 0.34 µM
- CHIMeOH [3]: 69.61
- EC50 ([5]; starved (quiescent) cells): 1.4 µM
- IC50 [6]: 3.5 µM
- CHIACN1 [2]: 69.99
- CHIACN2 [2]: 73.94
- EC50 [7]: 7.95 µM

Compound: CC(=O)c1ccccc1 [Acetophenone (21), acetophenone, reference compound]
- CHIACN (c) [1]: 64.90
- CHIMeOH (b) [3]: 52.47 ± 0.05
- CHIACN (b) [2]: 61.93 ± 0.05

Compound: Cn1c(=O)c2nc(-c3ccccc3)[nH]c2n(C)c1=O [Ph-theophylline (27), phenyltheophylline, reference compound]
- CHIACN (c) [1]: 52.04
- CHIMeOH (b) [3]: 61.61 ± 0.04

Compound: CCCCC(=O)c1ccccc1 [Valerophenone (25), valerophenone, reference compound]
- CHIACN (c) [1]: 97.67
- CHIMeOH (b) [3]: 73.05 + 0.12
- CHIACN (b) [2]: 86.66 ± 0.08

Compound: COc1cc(C2Oc3cc([C@H]4Oc5cc(O)cc(O)c5C(=O)[C@@H]4O)ccc3OC2CO)ccc1O (stereo partly shown) [Silybin, reference compound]
- EC50 ([4]; Rattus norvegicus): 18.8 µM
- EC50 ([5]; Rattus norvegicus): 68 µM
- cell growth with compound alone ([8]; HepG2, 14 to 200 μM, absence of CCl4): up to 125%
- concentration giving complete protection from CCl4 ([8]; HepG2, CCl4 4.5×10^−3 M): higher than 100 μM
- EC50 ([8]; Homo sapiens, HepG2, read-out: EC50 cytoprotection): 45 µM
- cytoprotection attained ([8]; text b199): 100%
- Experiment 3 IC50 (T) [6]: non toxic
- Experiment 1 anti-proliferation activity reached ([7]; EC50 could not be estimated): < 50%
- Experiment 1 anti-proliferation activity ([7]; measured at 100 μM): ˜20%^a^

Compound: c1ccc2[nH]cnc2c1 [Benzimidazole (20), benzimidazole, reference compound]
- CHIACN (c) [1]: 30.71
- CHIMeOH (b) [3]: 41.07 ± 0.04
- CHIACN (b) [2]: 43.18 ± 0.12

Compound: COc1cc2c(c(OC)c1OC)-c1ccc(OC)c(=O)cc1[C@@H](NC(C)=O)CC2 [Colchicine (26), colchicine, reference compound]
- CHIACN (c) [1]: 41.37
- CHIMeOH (b) [3]: 57.56 + 0.04

Compound: CC(=O)OC(C)(C)C=CC(=O)C(C)(O)C1C(O)CC2(C)C3CC=C4C(C=C(OC(C)C)C(=O)C4(C)C)C3(C)C(=O)CC12C (stereo not shown) [E-iPr]
- EC50 ([4]; proliferating cells): 0.32 µM
- CHIMeOH [3]: 76.30
- cytoprotection on HepG2 cells ([8]; at 6.25% of IC50, against CCl4): −0.60 ± 1.11
- cytoprotection on HepG2 cells ([8]; at 12.5% of IC50, against CCl4): −7.81 ± 0.68
- cytoprotection on HepG2 cells ([8]; at 20% of IC50, against CCl4): −7.00 ± 0.17
- cytoprotection on HepG2 cells ([8]; at 50% of IC50, against CCl4): −32.99 ± 1.70
- IC50 ([9]; Table 4, 24 h incubation, MTT): 4.3 µM
- IC50 ([9]; Table 5): 4.3 ± 0.5 µM
- IC50 [6]: 2.5 µM
- CHIACN1 [2]: 86.84
- CHIACN2 [2]: 100.04
- EC50 [7]: 2.13 µM
